Measurements as given in patent US20120165403A1, “METHODS OF INHIBITING THE ACTIVITY OF HSP90 AND/OR ARYL HYDROCARBON RECEPTOR” (UNIVERSITY OF ROCHESTER, priority 2004, published 2012).

Molecular target: T1, XAP2 (Mus musculus, UniProt O08915)
T1 construct: His tag; made in house; host or cells: TNT rabbit reticulocyte lysate; partly purified on TALON cobalt resin
T1 sequence (O08915 1-330): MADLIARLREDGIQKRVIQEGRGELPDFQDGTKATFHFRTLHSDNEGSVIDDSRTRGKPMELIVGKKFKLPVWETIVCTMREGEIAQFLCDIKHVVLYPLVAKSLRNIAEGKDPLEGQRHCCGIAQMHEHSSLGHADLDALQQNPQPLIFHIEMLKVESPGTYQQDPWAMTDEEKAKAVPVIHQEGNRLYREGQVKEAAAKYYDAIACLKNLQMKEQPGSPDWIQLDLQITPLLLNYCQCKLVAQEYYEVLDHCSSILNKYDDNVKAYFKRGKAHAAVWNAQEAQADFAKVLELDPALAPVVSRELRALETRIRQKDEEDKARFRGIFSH
Experiment: Affinity chromatography on EGCG-conjugated Sepharose, XAP2
Format: binding
Source text: Murine AhR and ARNT cDNA (obtained from J. Whitlock and O. Hankinson, respectively) were inserted into pcDNA3 (Invitrogen, Carlsbad, Calif.). Chicken hsp90 constructs (FIG. 5), c90711hsp (wild-type), c90G94D (wild-type point mutant gly94→Asp (Grenert et al., J. Biol. Chem. 272:23843-23850 (1997), which is hereby incorporated by reference in its entirety), c90D92A (wild-type point mutant Asp92→Ala (Sullivan et al., J. Biol. Chem. 268:20373-20379 (1993), which is hereby incorporated by reference in its entirety), c90N221 (wild-type truncation mutant encoding a.a. 221-728 (Sullivan et al., J. Biol. Chem. 268:20373-20379 (1993), which is hereby incorporated by reference in its entirety)), c90N303 (a.a. 303-728) and c90N538 (a.a. 538-728) were kind gifts from Dr. D. Toft (Rochester, Minn.). The C-terminal truncation mutant c900507 (a.a. 1-221) was obtained from Dr. L. Neckers (Rockville, Md.) (Grenert et al., J. Biol. Chem. 272:23843-23850 (1997); Marcu et al., J. Biol. Chem. 275:37181-37186 (2000), which are hereby incorporated by reference in their entirety). Human p23 cDNA was excised from pQE80-p23 (obtained from W. Chan Stockton, Calif.) by sequential digests using the restriction enzymes Sad (3′-end) and BamHI (5′-end) and inserted into the similarly digested pET28a (Novagen, Madison, Wis.). The mouse histidine-tagged XAP2 construct, pET-AIP (Bell et al., J. Biol. Chem. 275:36407-36414 (2000), which is hereby incorporated by reference in its entirety), was a kind gift from Dr. D. Bell (Nottingham, UK). All constructs are in the T7 orientation with the exception of c900507, which is driven by an SP6 promoter.
AhR, ARNT, hsp90 (wild-type, point mutants, and truncation mutants), p23, and XAP2 were generated (separately) by coupled transcription/translation in rabbit reticulocyte lysate (RRL) using the TNT® system according to the manufacturer's protocol (Promega, Madison Wis.). In this system, ^35S-methionine was included in the transcription/translation mix to generate ^35S-labeled protein.
Immobilized Metal Affinity Chromatography (IMAC) Purification of Histidine-Tagged XAP2. The TALON IMAC method was used for purification of XAP2 from RRL following a modified protocol (Clonetech). A 500 μL (50% slurry) of cobalt resin was washed at room temperature three times with TALON buffer (50 mM Na2PO4, 300 mM NaCl, pH 7.0) according to the manufacturer's protocol. A 175 μL aliquot of undiluted ^35S-XAP2 in RRL was added to a 15 ml conical tube containing the washed resin in TALON buffer for 20 minutes at room temperature end-over-end. […] Each aliquot was collected separately and analyzed for the presence of ^35S-XAP2 by SDS-PAGE followed by Phosphorimaging (PSI; Molecular Dynamics, Sunnyvale, Calif.). […]

O=C(O[C@@H]1Cc2c(O)cc(O)cc2O[C@@H]1c1cc(O)c(O)c(O)c1)c1cc(O)c(O)c(O)c1 [EGCG, epigallocatechin gallate]
binding of XAP2 to EGCG-Sepharose (35S-XAP2 in RRL): eluted from EGCG-Sepharose | binding of XAP2 to EGCG-Sepharose (Hepa cytosol): also eluted from EGCG-Sepharose | binding of purified XAP2 to immobilized EGCG (His-purified XAP2, devoid of detectable hsp90): not specifically eluted from immobilized EGCG | binding of purified XAP2 after reconstitution (His-purified XAP2 with purified hsp90 or RRL): restores XAP2 elution
